The values that follow come from PMC6261661 (ACS chemical neuroscience, 2018).

The target in assay [1] is T1, mMC5R (Mus musculus, UniProt P41149). The experiment in a line: CRE/β-galactosidase reporter gene bioassay, agonist activity at mMC5R. The following applies: for selectivity between the mMC1R and the mMC5R: monosubstituted reference peptides, from literature EC50 values of Table 3. In kind it is cell-based.
In assay [2] the target is T2, mMC4R (Mus musculus, UniProt P56450). The experiment in a line: Antagonist Schild analysis against agonist MTII at mMC4R. In kind it is cell-based.
T2 sequence (P56450 whole entry): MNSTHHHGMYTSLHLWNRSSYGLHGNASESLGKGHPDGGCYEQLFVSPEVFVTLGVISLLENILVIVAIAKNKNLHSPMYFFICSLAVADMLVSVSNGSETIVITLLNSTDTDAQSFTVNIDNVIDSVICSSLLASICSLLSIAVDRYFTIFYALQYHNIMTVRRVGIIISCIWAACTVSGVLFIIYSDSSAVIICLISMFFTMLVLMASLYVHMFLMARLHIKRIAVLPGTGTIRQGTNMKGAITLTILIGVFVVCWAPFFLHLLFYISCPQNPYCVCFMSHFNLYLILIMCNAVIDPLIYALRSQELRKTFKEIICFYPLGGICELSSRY
In assay [3] the target is T3, mMC3R (Mus musculus, UniProt P33033). Kind of assay: Antagonist Schild analysis against agonist MTII at mMC3R. In kind it is cell-based.
T3 sequence (P33033 whole entry): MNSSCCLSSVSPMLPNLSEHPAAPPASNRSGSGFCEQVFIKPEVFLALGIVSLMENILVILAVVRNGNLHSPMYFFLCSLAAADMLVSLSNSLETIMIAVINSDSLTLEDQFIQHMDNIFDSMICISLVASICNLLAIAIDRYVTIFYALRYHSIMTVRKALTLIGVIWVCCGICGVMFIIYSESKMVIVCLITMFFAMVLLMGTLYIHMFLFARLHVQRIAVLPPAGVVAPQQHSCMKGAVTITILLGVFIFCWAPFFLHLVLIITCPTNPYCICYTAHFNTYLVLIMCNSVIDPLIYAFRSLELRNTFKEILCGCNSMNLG
In assay [4] the target is T2, mMC4R. The experiment in a line: CRE/β-galactosidase reporter gene bioassay, agonist activity at mMC4R. The following applies: ligand at 100 μM, compared to maximal response generated by α-MSH. In kind it is cell-based. On the technique in general: Reporter assays use an easily measured gene product as a stand-in for the process of interest.
Assay [5] has as its target T4, mMC1R (Mus musculus, UniProt Q01727). Kind of assay: CRE/β-galactosidase reporter gene bioassay, agonist activity at mMC1R. In kind it is cell-based.
The test system of a further assay is male and female mice. The note with it: central administration, ref [37]; cited from earlier work.
The target in assay [6] is T1, mMC5R. The note with it: read-out: mMC5R EC50, reference peptide from the literature, cited from earlier work.
Assay [7] deals with T3, mMC3R. The following applies: cited from earlier work; for EC50: read-out: mMC3R EC50, reference peptide from the literature.
For assay [8], the target named is T2, mMC4R. The note with it: read-out: mMC4R EC50, reference peptide from the literature, cited from earlier work.
Assay [9] deals with T4, mMC1R. The following applies: read-out: mMC1R EC50, reference peptide from the literature, cited from earlier work.
Setting [10] is: fold difference in EC50 vs peptide 1, negative prefix = more potent than 1.
[11] abbreviates: Ant = antagonist, SA = some stimulatory activity at 100 µM.

Where “and” joins values, the source holds several entries; their conditions need not be identical. Equal entries are not always repeated. Where two headings read alike, the source gives them in different places. Square brackets hold non-standard residues; d marks the D form. Peptide text beside a SMILES is read from it. Bip = N[C@@H](Cc1ccc(-c2ccccc2)cc1)C(=O)O; dBip = N[C@H](Cc1ccc(-c2ccccc2)cc1)C(=O)O; dPhe(4-I) = N[C@H](Cc1ccc(I)cc1)C(=O)O; 1Nal = N[C@@H](Cc1cccc2ccccc12)C(=O)O; 2Nal = N[C@@H](Cc1ccc2ccccc2c1)C(=O)O; d2Nal = N[C@H](Cc1ccc2ccccc2c1)C(=O)O; 3Pal = N[C@@H](Cc1cccnc1)C(=O)O; 4Pal = N[C@@H](Cc1ccncc1)C(=O)O; Tic = O=C(O)[C@@H]1Cc2ccccc2CN1; 2Thi = N[C@@H](Cc1cccs1)C(=O)O Bounds are passed on as bounds.

T1 sequence (P41149 whole entry): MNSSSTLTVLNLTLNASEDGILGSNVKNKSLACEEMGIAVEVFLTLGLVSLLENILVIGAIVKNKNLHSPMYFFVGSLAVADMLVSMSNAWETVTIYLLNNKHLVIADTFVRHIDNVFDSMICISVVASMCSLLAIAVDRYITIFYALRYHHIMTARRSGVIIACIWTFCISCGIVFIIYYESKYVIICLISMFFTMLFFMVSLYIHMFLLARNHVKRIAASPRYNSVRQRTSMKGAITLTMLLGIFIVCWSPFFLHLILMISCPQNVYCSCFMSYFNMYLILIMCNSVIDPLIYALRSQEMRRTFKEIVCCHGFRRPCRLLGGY
T4 sequence (Q01727 whole entry): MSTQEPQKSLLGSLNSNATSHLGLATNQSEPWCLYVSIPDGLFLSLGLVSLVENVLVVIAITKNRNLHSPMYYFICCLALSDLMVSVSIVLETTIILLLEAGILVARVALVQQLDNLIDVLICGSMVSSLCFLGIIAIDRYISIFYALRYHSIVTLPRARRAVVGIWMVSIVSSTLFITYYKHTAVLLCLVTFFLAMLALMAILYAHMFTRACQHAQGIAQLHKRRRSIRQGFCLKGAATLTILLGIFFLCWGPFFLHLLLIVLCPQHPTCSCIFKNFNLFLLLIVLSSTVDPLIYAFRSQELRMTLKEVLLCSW

Take `CC(=O)N[C@@H](Cc1c[nH]c2ccccc12)C(=O)N[C@H](Cc1ccc(I)cc1)C(=O)N[C@@H](CCCNC(=N)N)C(=O)N[C@@H](Cc1c[nH]c2ccccc12)C(N)=O` [Peptide 13, Ac-Trp-(pI)DPhe-Arg-Trp-NH2] (Ac-W[dPhe(4-I)]RW-NH2): the EC50 (commonly the concentration giving half of the maximal effect) on mMC5R [1] came to 10 ± 3 µM; at mMC1R [5] (mMC1R EC50, agonist, HEK-293 cells stably expressing receptor, ±SEM), 4.2 ± 1.2 µM. For the same molecule, the “mMC5R Fold Diff.” value on mMC5R [1] (setting [10]) is given as 1905. Besides, the “mMC5R fold less potent than peptide 1” value on mMC5R [1] (less potent than 1) worked out at 1900 fold. Moreover, the Kb (commonly the affinity of an antagonist, worked out from how it opposes an agonist) was 0.00501 µM at mMC4R [2] and 0.0631 µM on mMC3R [3]. Also, the “mMC4R pharmacology class printed in Fold Diff. column (Ant, SA)” value on mMC4R [2] (setting [11]) was “SA Ant”. In addition, the “mMC3R pharmacology class printed in Fold Diff column (Ant, SA)” value on mMC3R [3] (setting [11]) is “Ant”. Also, on mMC4R [4], the “mMC4R relative percentage of stimulation at 100 μM” value worked out at 40%. Moreover, the “mMC1R Fold Diff” value on mMC1R [5] (setting [10]) came out at 30. In addition, the “effect on energy homeostasis in vivo” value with male and female mice is “different effects on energy homeostasis in male mice compared to female mice”.

`CC(=O)N[C@@H](Cc1c[nH]cn1)C(=O)N[C@H](Cc1ccccc1)C(=O)N[C@@H](CCCNC(=N)N)C(=O)N[C@@H](Cc1ccc2ccccc2c1)C(N)=O` [Peptide 39, Ac-His-DPhe-Arg-Nal(2’)-NH2] (Ac-H[dF]R[2Nal]-NH2): the “selectivity between the mMC1R and the mMC5R” value at mMC5R [1] is on record as at most 5 fold. For the same molecule, the EC50 at mMC5R [6] (ref [31]) is 0.0049 ± 0.0015 µM; on mMC3R [7] (ref [31]), 0.74 ± 0.16 µM; at mMC4R [8] (ref [31]) it was 0.016 µM and 0.0158 µM; at mMC1R [9] (ref [31]), 0.0179 ± 0.006 µM.

As to `CC(=O)N[C@@H](Cc1cccs1)C(=O)N[C@H](Cc1ccccc1)C(=O)N[C@@H](CCCNC(=N)N)C(=O)N[C@@H](Cc1c[nH]c2ccccc12)C(N)=O` [Peptide 52, Ac-2Thi-DPhe-Arg-Trp-NH2] (Ac-[2Thi][dF]RW-NH2), on mMC5R [1], the “selectivity between the mMC1R and the mMC5R” value is on record as at most 5 fold. For the same molecule, the EC50 was 0.041 ± 0.013 µM on mMC5R [6] (ref [33]), 3 ± 0.3 µM at mMC3R [7] (ref [33]) and 0.2 ± 0.04 µM on mMC1R [9] (ref [33]).

As for Ac-H[dF]R[1Nal]-NH2 [Peptide 38], the half-maximal effective concentration (EC50) on mMC5R [6] (ref [31]) was 0.033 ± 0.004 µM; at mMC3R [7] (ref [31]) it was 3.5 ± 1.3 µM; on mMC4R [8] (ref [31]) it was 0.26 ± 0.03 µM; on mMC1R [9] (ref [31]) it was 0.73 ± 0.32 µM.

On to Ac-H[dF]R[Bip]-NH2 [Peptide 42], for which the EC50 is 0.1 ± 0.02 µM on mMC5R [6] (ref [31]), 13 ± 0.8 µM on mMC3R [7] (ref [31]), 2.7 ± 0.5 µM on mMC4R [8] (ref [31]) and 0.052 ± 0.01 µM at mMC1R [9] (ref [31]).

In the case of Ac-H[dF]R[Tic]-NH2 [Peptide 41], the EC50 on mMC5R [6] (ref [31]) is 0.7 ± 0.1 µM; on mMC3R [7] (ref [31]) it was 23 ± 2 µM; at mMC4R [8] (ref [31]), 8.5 ± 0.9 µM; on mMC1R [9] (ref [31]), 0.043 ± 0.013 µM.

Ac-H[dF]R[d2Nal]-NH2 [Peptide 40]: the EC50 was 0.0121 ± 0.0033 µM at mMC5R [6] (ref [31]), 1.6 ± 0.6 µM at mMC3R [7] (ref [31]), 0.0462 ± 0.0079 µM at mMC4R [8] (ref [31]) and 0.13 ± 0.03 µM on mMC1R [9] (ref [31]).

For the molecule Ac-H[dF]R[dBip]-NH2 [Peptide 43], the EC50 at mMC5R [6] (ref [31]) was 0.15 ± 0.01 µM; at mMC3R [7] (ref [31]) it was 16 ± 5 µM; on mMC4R [8] (ref [31]), 1.5 ± 0.4 µM; on mMC1R [9] (ref [31]), 0.31 ± 0.07 µM.

For Ac-His-DBip-Arg-Trp-NH2 [Peptide 47], the EC50 at mMC5R [6] (ref [32]) was 0.0116 ± 0.0039 µM; on mMC3R [7] (ref [32]), 2.1 ± 0.7 µM; on mMC4R [8] (ref [32]), 0.068 ± 0.016 µM; on mMC1R [9] (ref [32]), 0.028 ± 0.011 µM.

On to “Ac-His-DNal(1’)-Arg-Trp-NH2 [Peptide 46]”, for which the EC50 on mMC5R [6] (ref [32]) is 0.051 ± 0.004 µM; on mMC3R [7] (ref [32]), 4.1 ± 0.1 µM; on mMC4R [8] (ref [32]) it was 0.3 ± 0.07 µM; at mMC1R [9] (ref [32]) it was 0.36 ± 0.06 µM.

As for Ac-His-DPhe-Arg-3Bal-NH2 [Peptide 44], the concentration for a half-maximal effect (EC50) on mMC5R [6] (ref [31]) is 0.048 ± 0.004 µM; at mMC3R [7] (ref [31]) it was 3.7 ± 1.4 µM; at mMC4R [8] (ref [31]), 0.14 ± 0.02 µM; at mMC1R [9] (ref [31]) it was 0.08 ± 0.009 µM.

For “Ac-His-DPhe-Arg-Phe-NH2 (Ac-H[dF]RF-NH2; SMILES CC(=O)N[C@@H](Cc1c[nH]cn1)C(=O)N[C@H](Cc1ccccc1)C(=O)N[C@@H](CCCNC(=N)N)C(=O)N[C@@H](Cc1ccccc1)C(N)=O) [Peptide 37]”, the EC50 in the assay with mMC5R [6] (ref [31]) was 0.89 ± 0.11 µM; with mMC3R [7] (ref [31]) it was 27 ± 7 µM; with mMC4R [8] (ref [31]), 7.8 ± 2.5 µM; in the assay with mMC1R [9] (ref [31]) it was 0.53 ± 0.24 µM.

For the molecule “Ac-Phe-DPhe-Arg-Trp-NH2 (Ac-F[dF]RW-NH2; SMILES CC(=O)N[C@@H](Cc1ccccc1)C(=O)N[C@H](Cc1ccccc1)C(=O)N[C@@H](CCCNC(=N)N)C(=O)N[C@@H](Cc1c[nH]c2ccccc12)C(N)=O) [Peptide 48]”, the EC50 with mMC5R [6] (ref [33]) is 0.14 ± 0.005 µM; with mMC3R [7] (ref [33]), 12 ± 2 µM; with mMC4R [8] (ref [33]), 0.071 ± 0.014 µM; with mMC1R [9] (ref [33]), 0.5 ± 0.1 µM.

Take “Ac-Trp-DPhe-Arg-Trp-NH2 (Ac-W[dF]RW-NH2; SMILES CC(=O)N[C@@H](Cc1c[nH]c2ccccc12)C(=O)N[C@H](Cc1ccccc1)C(=O)N[C@@H](CCCNC(=N)N)C(=O)N[C@@H](Cc1c[nH]c2ccccc12)C(N)=O) [Peptide 49]”: the EC50 with mMC5R [6] (ref [33]) was 0.51 ± 0.1 µM; with mMC3R [7] (ref [33]) it was 10 ± 2 µM; in the assay with mMC4R [8] (ref [33]), 0.53 ± 0.15 µM; with mMC1R [9] (ref [33]) it was 5.4 ± 1.8 µM.

In the case of Ac-[3Pal][dF]RW-NH2 [Peptide 50], the EC50 at mMC5R [6] (ref [33]) is 0.4 ± 0.1 µM; on mMC4R [8] (ref [33]), 0.89 ± 0.1 µM; at mMC1R [9] (ref [33]), 1.2 ± 0.2 µM. The “mMC3R pharmacology in words” value at mMC3R [7] (ref [33]) was “only slight agonist activity”.

In the case of Ac-[4Pal][dF]RW-NH2 [Peptide 51], the EC50 on mMC5R [6] (ref [33]) was 0.093 ± 0.022 µM; at mMC3R [7] (ref [33]), 2.3 ± 0.8 µM; on mMC4R [8] (ref [33]), 0.13 ± 0.03 µM; at mMC1R [9] (ref [33]), 0.18 ± 0.08 µM.
